{"source": "patent US20020151876A1", "about": "“Devices and methods for management of bone density” (priority 2001, published 2002)", "key": {"[1]": {"test_system": "patients with Crohn's disease", "settings": "cited from earlier work"}, "osteoblast-like cells": {"test_system": "osteoblast-like cells", "settings": "cited from earlier work"}, "patients": {"test_system": "patients", "settings": "long-term use; cited from earlier work"}, "tumor burden in bone": {"test_system": "tumor burden in bone", "settings": "two separate studies, relatively small number of patients; cited from earlier work"}, "rabbit model": {"test_system": "rabbit model", "assay": "local response to subcutaneous injection, skin reaction scoring (erythema, eschar, edema, necrosis)", "assay_type": "in vivo", "protocol": "A test was performed to evaluate the local response to pamidronate sodium following subcutaneous injection into a rabbit model.\nThe pamidronate sodium was reconstituted with 10 mL of phosphate buffered saline (PBS) to achieve a concentration of 9 mg/mL. The 9 mg/mL. solution was then diluted to achieve a concentration of 0.9 mg/mL.\nOn the day of the test, the fur on the back of each animal was removed on both sides of the spinal column with electric clippers. A 0.1 mL portion of two concentrations of the sample solution was injected subcutaneously at each of three sites along the spinal column of each of two rabbits. A 0.1 mL portion of PBS was injected subcutaneously at three sites along the other side of the spinal column of the same two rabbits. […] Scoring was at 24 hours, 48 hours, and 72 hours. All of the animals were observed daily for signs of ill health.\nThe injection sites were examined and scored for any tissue reactions, with results scored according to Table 1.\nThe average erythema and edema scores for each test article and controls are determined at each scoring interval (24, 48, and 72 hours) for each rabbit."}}}
{"smiles": "NCCCC(O)(P(=O)(O)O)P(=O)(O)O", "note": "[alendronate]", "values": [{"measurement": "safety and tolerability", "setting": "[1]", "result": "safe and well tolerated"}]}
{"smiles": "NC(=O)N1c2ccccc2C=Cc2ccccc21", "note": "[carbamazepine]", "values": [{"measurement": "proliferation of osteoblast-like cells", "setting": "osteoblast-like cells", "result": "directly suppress proliferation"}, {"measurement": "bone mass in patients", "setting": "patients", "result": "decrease bone mass"}]}
{"smiles": "O=P(O)(O)C(Cl)(Cl)P(=O)(O)O", "note": "[clodronate]", "values": [{"measurement": "tumor burden in bone", "setting": "tumor burden in bone", "result": "decreases tumor burden in bone"}]}
{"smiles": "NCCC(O)(P(=O)(O)O)P(=O)(O)O", "note": "[pamidronate sodium]", "values": [{"measurement": "injection site reaction (in words)", "setting": "rabbit model; any of the 0.9 mg/mL sites", "result": "no evidence of erythema or edema"}, {"measurement": "injection site reaction (in words)", "setting": "rabbit model; one 9 mg/mL site on one rabbit, 48 and 72 hours", "result": "Slight erythema"}, {"measurement": "injection site reaction (in words)", "setting": "rabbit model; one of the 9 mg/mL sites, 24 hours, both animals", "result": "Slight erythema"}, {"measurement": "signs of ill health, daily observation", "setting": "rabbit model; rabbits, throughout the test period (72 hours)", "result": "remained healthy"}]}
{"smiles": "O=C1NC(=O)C(c2ccccc2)(c2ccccc2)N1", "note": "[phenytoin]", "values": [{"measurement": "proliferation of osteoblast-like cells", "setting": "osteoblast-like cells", "result": "directly suppress proliferation"}, {"measurement": "bone mass in patients", "setting": "patients", "result": "decrease bone mass"}]}
